According to ChEMBL document CHEMBL1201862, “PubChem BioAssay data set” (2004):
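Each compound was tested at five concentrations against cells in 96-well plates for 48 hours. GI50 is the concentration that inhibits growth by half.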 Calls of active or inactive are those of the source. Rule as the data show it: active = GI50 up to about 1.1 µM and inactive = higher.

Columns and labels:
Test in all cases: inhibition of tumour cell growth, NCI panel, 48 h
UACC-257 = test system: UACC-257
Malme-3M = test system: Malme-3M
COLO 205 = test system: COLO 205
OVCAR-5 = test system: OVCAR-5
OVCAR-3 = test system: OVCAR-3
EKVX = test system: EKVX
KM12 = test system: KM12
SN12C = test system: SN12C
HT-29 = test system: HT-29
MDA-MB-231 = test system: MDA-MB-231
MCF7 = test system: MCF7
SK-MEL-28 = test system: SK-MEL-28
HOP-62 = test system: HOP-62
HCT-116 = test system: HCT-116
HCT-15 = test system: HCT-15
MDA-MB-435 = test system: MDA-MB-435
SW-620 = test system: SW-620
NCI-H226 = test system: NCI-H226
OVCAR-4 = test system: OVCAR-4
SF-268 = test system: SF-268
MOLT-4 = test system: MOLT-4
A549 = test system: A549
UACC-62 = test system: UACC-62
Hs-578T = test system: Hs-578T
786-0 = test system: 786-0
HCC 2998 = test system: HCC 2998
SF-539 = test system: SF-539
IGROV-1 = test system: IGROV-1
MDA-N = test system: MDA-N
K562 = test system: K562
M14 = test system: M14
HOP-92 = test system: HOP-92
RPMI-8226 = test system: RPMI-8226
TK-10 = test system: TK-10
DU-145 = test system: DU-145
SK-MEL-2 = test system: SK-MEL-2
NCI-H460 = test system: NCI-H460
A498 = test system: A498
T47D = test system: T47D
LOX IMVI = test system: LOX IMVI
SNB-19 = test system: SNB-19
SR = test system: SR
SK-OV-3 = test system: SK-OV-3
NCI-H522 = test system: NCI-H522
CAKI-1 = test system: CAKI-1
NCI-H23 = test system: NCI-H23
NCI/ADR-RES = test system: NCI/ADR-RES
OVCAR-8 = test system: OVCAR-8
SNB-75 = test system: SNB-75
RXF 393 = test system: RXF 393
U-251 = test system: U-251
BT-549 = test system: BT-549
SK-MEL-5 = test system: SK-MEL-5
SF-295 = test system: SF-295
PC-3 = test system: PC-3
ACHN = test system: ACHN
CCRF-CEM = test system: CCRF-CEM
UO-31 = test system: UO-31
HL-60 = test system: HL-60

## CCCCOP(=O)(OCCCC)/C(C#N)=C/c1ccc(C)o1
UACC-257
  GI50: 27.4 µM (inactive)
Malme-3M
  GI50: 29.6 µM (inactive)
COLO 205
  GI50: 31.9 µM (inactive)
OVCAR-5
  GI50: 86.3 µM (inactive)
OVCAR-3
  GI50: 14.5 µM (inactive)
EKVX
  GI50: 40.6 µM (inactive)
KM12
  GI50: 42.4 µM (inactive)
SN12C
  GI50: 56.1 µM (inactive)
HT-29
  GI50: 45.6 µM (inactive)
MDA-MB-231
  GI50: > 100 µM (inactive)
MCF7
  GI50: 22.6 µM (inactive)
SK-MEL-28
  GI50: 60.8 µM (inactive)
HOP-62
  GI50: > 100 µM (inactive)
HCT-116
  GI50: 36.9 µM (inactive)
HCT-15
  GI50: 38.7 µM
MDA-MB-435
  GI50: 32.6 µM (inactive)
SW-620
  GI50: 95.9 µM (inactive)
NCI-H226
  GI50: 28 µM (inactive)
OVCAR-4
  GI50: 46.8 µM (inactive)
SF-268
  GI50: 63.4 µM (inactive)
MOLT-4
  GI50: 63.4 µM (inactive)
A549
  GI50: 47.2 µM (inactive)
UACC-62
  GI50: 53.7 µM (inactive)
Hs-578T
  GI50: 57.4 µM (inactive)
786-0
  GI50: 37.1 µM (inactive)
HCC 2998
  GI50: > 100 µM (inactive)
SF-539
  GI50: 61.1 µM (inactive)
IGROV-1
  GI50: > 100 µM (inactive)
MDA-N
  GI50: 36.9 µM (inactive)
K562
  GI50: 31.2 µM (inactive)
M14
  GI50: 28.2 µM (inactive)
HOP-92
  GI50: 29.6 µM (inactive)
RPMI-8226
  GI50: 54.8 µM (inactive)
TK-10
  GI50: > 100 µM (inactive)
DU-145
  GI50: > 100 µM (inactive)
SK-MEL-2
  GI50: 31 µM (inactive)
NCI-H460
  GI50: 61.5 µM (inactive)
A498
  GI50: 56 µM (inactive)
T47D
  GI50: 51.5 µM (inactive)
LOX IMVI
  GI50: 59 µM (inactive)
SNB-19
  GI50: > 100 µM (inactive)
SR
  GI50: 51.6 µM (inactive)
SK-OV-3
  GI50: 81.5 µM (inactive)
NCI-H522
  GI50: 58.9 µM (inactive)
CAKI-1
  GI50: 60.5 µM (inactive)
NCI-H23
  GI50: 30.4 µM (inactive)
NCI/ADR-RES
  GI50: 15.5 µM (inactive)
OVCAR-8
  GI50: 53.6 µM (inactive)
SNB-75
  GI50: 35.3 µM (inactive)
RXF 393
  GI50: 26.7 µM (inactive)
U-251
  GI50: 93.3 µM (inactive)
BT-549
  GI50: 19.1 µM (inactive)
SK-MEL-5
  GI50: 33.7 µM (inactive)
SF-295
  GI50: 43.7 µM (inactive)
PC-3
  GI50: 23.9 µM (inactive)
ACHN
  GI50: 42.2 µM (inactive)

## CCOC(=O)CC(C)C(C#N)(OP1(=O)OC(c2ccccc2)C(C)N1C)c1ccccc1 (configuration not stated)
UACC-257
  GI50: 41.3 µM (inactive)
Malme-3M
  GI50: 85.1 µM (inactive)
CCRF-CEM
  GI50: 29.9 µM (inactive)
COLO 205
  GI50: 18.5 µM (inactive)
UO-31
  GI50: 35.4 µM (inactive)
OVCAR-5
  GI50: > 100 µM (inactive)
OVCAR-3
  GI50: 50.7 µM (inactive)
EKVX
  GI50: 62.2 µM (inactive)
KM12
  GI50: 45.8 µM (inactive)
SN12C
  GI50: 58.9 µM (inactive)
HT-29
  GI50: 57.7 µM (inactive)
MDA-MB-231
  GI50: 59.7 µM (inactive)
MCF7
  GI50: 37.8 µM (inactive)
SK-MEL-28
  GI50: 81.7 µM (inactive)
HOP-62
  GI50: > 100 µM (inactive)
HCT-116
  GI50: 50.2 µM (inactive)
HCT-15
  GI50: 43.7 µM
MDA-MB-435
  GI50: 61 µM (inactive)
SW-620
  GI50: 54.7 µM (inactive)
SF-268
  GI50: > 100 µM (inactive)
MOLT-4
  GI50: 28.8 µM (inactive)
A549
  GI50: 47 µM (inactive)
UACC-62
  GI50: 58.7 µM (inactive)
Hs-578T
  GI50: 83.6 µM (inactive)
786-0
  GI50: 77.8 µM (inactive)
HCC 2998
  GI50: 36 µM (inactive)
SF-539
  GI50: > 100 µM (inactive)
IGROV-1
  GI50: 55.2 µM (inactive)
MDA-N
  GI50: > 100 µM (inactive)
K562
  GI50: 32.1 µM (inactive)
M14
  GI50: 68.5 µM (inactive)
HOP-92
  GI50: 17.8 µM (inactive)
RPMI-8226
  GI50: 36.3 µM (inactive)
TK-10
  GI50: 68.7 µM (inactive)
DU-145
  GI50: 97.5 µM (inactive)
SK-MEL-2
  GI50: 34.1 µM (inactive)
NCI-H460
  GI50: 47.4 µM (inactive)
A498
  GI50: 65.3 µM (inactive)
T47D
  GI50: 30.5 µM (inactive)
LOX IMVI
  GI50: 55.3 µM (inactive)
SNB-19
  GI50: 99.1 µM (inactive)
SR
  GI50: 48.6 µM (inactive)
HL-60
  GI50: 34.9 µM (inactive)
SK-OV-3
  GI50: 86.7 µM (inactive)
NCI-H522
  GI50: 62.5 µM (inactive)
CAKI-1
  GI50: 81.5 µM (inactive)
NCI-H23
  GI50: 66.1 µM (inactive)
NCI/ADR-RES
  GI50: 39.5 µM (inactive)
OVCAR-8
  GI50: 46.1 µM (inactive)
RXF 393
  GI50: 67.5 µM (inactive)
U-251
  GI50: 49 µM (inactive)
BT-549
  GI50: 55.1 µM (inactive)
SK-MEL-5
  GI50: 47.6 µM (inactive)
SF-295
  GI50: 46.9 µM (inactive)
PC-3
  GI50: 33.6 µM (inactive)
ACHN
  GI50: 44.1 µM (inactive)
